Like-named read-outs stand apart in the source and are kept apart here.
Key:
neutrophils [1] = test system: neutrophils
Experimental: (§1) Neutrophils were isolated from peripheral blood. 3.5 ml of heparinised blood was spread over M-PRM medium (Flow Laboratories) and centrifuged for 40 minutes at 400g at 20° C. […] The cells were adjusted to a concentration of 2×10^6 ml.
Myeloperoxidase: 100 μl of substrate mixture, consisting of 0.04% orthophenylene diamine (Sigma) and 0.014% hydrogen peroxide in phosphate citrate buffer (pH 5.0) was added to cells and incubated for 10 minutes before the reaction was stopped with 100 μl of 10% sulphuric acid. The optical density at 492 mu was measured with a Multiscan Titertek Plus (Flow Laboratories).
(§2) For chemiluminescence, superoxide anion production, myeloperoxidase and acid phosphatase both the spontaneous and induced reactions were measured. Induction was performed by exposing the cells to opsonized zymosan (30 μl, 20 mg/ml) for 30 minutes at 37° C. before the assay.
(§3) In the treated group GMDP was given per os on days -2 and -1 before the operation, and subcutaneously on days +1, +2 and +3 after the operation at a dose of 1-2 mg/day. The total dose of GMDP was […]. On day +5 after the operation neutrophil function was again assessed in all patients by the same parameters as specified above.

neutrophils [2] = test system: neutrophils; remark: listed apart in the source
Experimental: as §1
Adhesion: 100 μl of neutrophil suspension were placed in the wells of a flat-bottomed culture dish, and incubated at 37° C. for 60 minutes. After washing off the non-adhesive cells, the adhered neutrophils were fixed with ethanol and stained with Romanovsky-Giemsa dye. After washing out the free dye, the cell-associated dye was dissolved in isopropanol, and the optical density (OD650) of the solution was determined using an "ELISA II" microprocessor (Boehringer). The number of adherent cells was calculated by reference to a standard curve.
as §3

peritoneal macrophages = details: 100 μg i.p. per mouse, LPS 300 μg one day later, black ink uptake, OD 610 nm; FIG. 2
Experimental: Mice were divided into 9 groups and to each group was administered one of the following: saline, MDP, MDP-OBu, MDP-Thr, GMDP, MDP-Lys(St), GMDP-OH and GMDP-LL.
The compound under test was injected into the peritoneal cavity of mice, each mouse receiving 100 μg or an equimolar equivalent dose. Control mice received 200 μl of saline. One day after injection of the muramyl peptide, a lethal does of LPS (300 μg per mouse) in 200 μl of physiological saline was injected intraperitoneally and after 20 minutes, 1 ml of black ink was also administered intraperitoneally. 10 minutes later, peritoneal macrophages were obtained and washed twice. The number of cells was counted and then the macrophages were lysed and the optical density of the supernatant was determined at 610 nm.

IL-1 = assay: Example 6: IL-1 production by peritoneal macrophages in response to LPS; assay type: in vivo, BALB/c mice; details: 2 injections 12 hours apart; macrophages stimulated with LPS 25 μg/ml 24 hours; thymocyte co-stimulation bioassay; FIG. 4
Experimental: Mice (BALB/c, female) 13-14 g, 5 animals in each group, received 2 injections of MDPs, 12 hours apart. The MDPs tested were MDP, muroctasin, MDP-Thr, MDP-OBu, GMDP-LL, GMDP-Lys(St) and GMDP-A. After the last injection, peritoneal cells were collected and the induction of IL-1 secretion by peritoneal macrophages was tested.
Macrophages were collected from the peritoneal cavity of mice by lavage with Hank's balanced salt solution. After washing the cells, they were then placed in wells of flat-bottomed 96-well plates and incubated at 37° C. for 1 hour in RPMI containing 5% FCS. The plates were then washed with warm RPMI to remove non-adhering cells. LPS (25 μg/ml) was then added in fresh culture medium and the plates were further cultured for 24 hours.
Production of IL-1 by peritoneal macrophages was assayed by thymocyte co-stimulation bioassay. Thymocytes from (CBA*C57BL.6)F1 mice (106), PHA (1 μg.ml), and the tested supernatant (50 μl) were placed into the wells of flat-bottomed 96-well plates. Thymocyte proliferation rate was measured 72 hours later by the incorporation of 3H TdR (1 μCi.well) during 6 hours prior to culture termination.

[3] = test system: LPS-induced mortality in mice; assay: Example 3: LPS-induced mortality in mice; assay type: in vivo, BALB/c mice; details: i.p. twice daily 100 μg or molar equivalent per mouse for 9 days before 300 μg LPS; mortality 2 days after LPS; FIG. 1
Experimental: 25 female BALB/c mice weighing 16-18 g each were divided into 5 groups, each group containing 5 animals. Each group of mice received twice-daily doses of saline, GMDP, GMDP-OBu, MDP or GMDP-A. The compounds were administered by intra-peritoneal injection in twice-daily doses of 100 μg or the molar equivalent per mouse during a 9-day period before the injection of 300 μg LPS per mouse. […] Thus GMDP and GMDP-A would be useful in the treatment and prevention of sepsis and septic shock, whereas MDP and GMDP-OBu would not.

TNFα [4] = assay: Example 8: TNF induction by muramyl peptides; assay type: in vivo, BALB/c mice; details: C. parvum-primed mice, 100 μg (equimolar) IP, LPS 25 μg 18 hours later; FIG. 6
Experimental: Here, the muramyl peptides tested were prototype MDP, GMDP, GMDP-A, GMDP-OBu, GMDP-Lys(St), GMDPA-Lys(St), GMDP-Benz and Thr-MDP.
BALB/mice (6 mice/groups) were injected intraperitoneally with 1.4 mg of dead C. parvum (0.2 ml of a 7 mg/ml suspension). Mice were subsequently (2 weeks later) treated with saline, MDP (100 μg) or analogue (100 μg) in 0.5 ml saline IP. The dose of each `MDP` was adjusted so that animals received equimolar amounts. […] (25 μg) was injected 18 hours after the injection of MDP/analogue and the mice were subsequently sacrificed and bled out. TNF was determined by standard capture ELISA assay.

Pyrogenicity = details: in vivo
Experimental: The expression "non pyrogenic or of low pyrogenicity" refers to a compound which induces an increase in temperature of an adult human of less than half a degree following the administration of 1 to 2 mg of the compound.
First, muramyl peptide compounds useful in the invention may be non-pyrogenic. Pyrogenicity may be simply measured by methods well known in the art.

neutrophils [5] = test system: neutrophils; remark: listed apart in the source
Experimental: as §1
Superoxide anion production was determined by the NBT test (Merck).
as §2, §3

TNFα [6] = assay: Example 5: TNF production in whole blood culture; assay type: cell-based; details: human blood diluted 1:2, 6 hours at 37° C., TNFα capture ELISA; FIG. 3
Experimental: Whole heparinized human blood was diluted 1:2 with RPMI and dispensed into 96-well microtitre plates. Individual wells were treated with saline, GMDP, MDP or LPS at the doses shown above. After incubating at 37° C. for 6 hours, the supernatants were assayed for TNFα by a standard capture ELISA method. […] This is a sensitive assay for measuring the effect of mediators on immune cell production of TNFα which is believed to be a primary mediator of inflammation, coagulopathy and death in sepsis and septic shock. It can be seen that GMDP is the least inflammatory mediator; the respective TNF inducing activities of these substances would […] correlate with their toxicities.

[7] = opsonized zymosan, Day -3 (before treatment)
[8] = opsonized zymosan, Day -3 to Day +5

Structure (SMILES): CC(=O)NC1C(OC2C(CO)OC(O)C(NC(C)=O)C2OC(C)C(=O)NC(C)C(=O)NC(CCC(=O)O)C(N)=O)OC(CO)C(O)C1O [GMDP, N-acetyl-D-glucosaminyl-(β1-4)-N-acetylmuramyl-L-alanyl-D-isoglutamine]
- Myeloperoxidase, spontaneous (neutrophils [1]; Day +5): 1075 ± 178.3 O.D. 492μ
- Myeloperoxidase, spontaneous (neutrophils [1]; Day -3 (before treatment)): 1145 ± 204.1 O.D. 492μ
- Myeloperoxidase, spontaneous % Change (neutrophils [1]; Day -3 to Day +5): -6.1%
- Myeloperoxidase, induced (neutrophils [1]; opsonized zymosan, Day +5): 948.3 ± 205 O.D. 492μ
- Myeloperoxidase, induced (neutrophils [1]; [7]): 948.3 ± 205 O.D. 492μ
- Myeloperoxidase, induced % Change (neutrophils [1]; [8]): +11.2%
- Adhesion (neutrophils [2]; Day +5 after operation): 47.9 ± 12.6 O.D. 650μ
- Adhesion (neutrophils [2]; Day -3 (before treatment)): 39.8 ± 5.4 O.D. 650μ
- Adhesion % Change (neutrophils [2]; Day -3 to Day +5): +20.4%
- phagocytic activity of macrophages (peritoneal macrophages): potent in increasing macrophage activity
- suppression of IL-1 production (IL-1): suppress the IL-1 response to LPS
- effect on LPS-induced mortality [3]: antagonise the effect of LPS
- effect on LPS-induced TNFα production (TNFα [4]): suppress TNFα production
- pyrogenicity (Pyrogenicity): sufficiently low
- Superoxide, spontaneous (neutrophils [5]; Day +5): 97.6 ± 12.8
- Superoxide, spontaneous (neutrophils [5]; Day -3 (before treatment)): 78.9 ± 15.7
- Superoxide, spontaneous % Change (neutrophils [5]; Day -3 to Day +5): +23.7%
- Superoxide, induced (neutrophils [5]; opsonized zymosan, Day +5): 134.9 ± 11.3
- Superoxide, induced (neutrophils [5]; [7]): 133.7 ± 16.1
- Superoxide, induced % Change (neutrophils [5]; [8]): +0.9%
- TNF production in whole blood culture (TNFα [6]): poor inducer of TNF

Reference: patent publication US5506204A, “Muramyl compounds for treatment of septic shock” (Peptech (UK) Limited, priority 1991, dated 1996)
